Measured values taken from PubChem BioAssay (NCI).
Several values for one entry are separate records, joined by “and”; a condition that tells them apart may be missing. Identical values can stand only once.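 Five concentrations, 48 hours, 96-well plates. The concentration for 50% growth inhibition is given as GI50. TGI is the concentration that stops growth completely.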 Numbered stars: 1 amine (or outer) side, 2 acyl side, 3 side chain; on linkers, the order of the positions; unused ones are H or OH. Bridge positions count the residues as written; N and C are the ends. Square brackets hold non-standard residues; d marks the D form. Peptide text beside a SMILES is read from it. I, II: the chains in the order shown. Actinocin(1to9) = Cc1c2oc3c(C)ccc(C(=O)[*:2])c3nc-2c(C(=O)[*:1])c(N)c1=O; NMeY = CN[CH](Cc1ccc(O)cc1)C(=O)O; Sar = CNCC(=O)O

Legend:
Experiment in all cases: NCI-60 cell line screen, 48 h
NCI-H522 lung = system: NCI-H522 lung
SK-MEL-5 melanoma = system: SK-MEL-5 melanoma
NCI-H23 lung = system: NCI-H23 lung
UACC-62 melanoma = system: UACC-62 melanoma
SNB-19 CNS = system: SNB-19 CNS
SNB-75 CNS = system: SNB-75 CNS
NCI-H226 lung = system: NCI-H226 lung
SK-OV-3 ovarian = system: SK-OV-3 ovarian
OVCAR-5 ovarian = system: OVCAR-5 ovarian
RXF 393 renal = system: RXF 393 renal

| Structure (SMILES) | TGI (NCI-H522 lung) [µM] | TGI (SK-MEL-5 melanoma) [µM] | TGI (NCI-H23 lung) [µM] | TGI (UACC-62 melanoma) [µM] | TGI (SNB-19 CNS) | TGI (SNB-75 CNS) [µM] | TGI (NCI-H226 lung) [µM] | TGI (SK-OV-3 ovarian) [µM] | TGI (OVCAR-5 ovarian) [µM] | GI50 (NCI-H522 lung) [µM] | GI50 (RXF 393 renal) | GI50 (SK-OV-3 ovarian) | GI50 (OVCAR-5 ovarian) | GI50 (SK-MEL-5 melanoma) [µM] | GI50 (UACC-62 melanoma) [µM] | GI50 (SNB-19 CNS) [µM] | TGI (RXF 393 renal) [µM] | GI50 (NCI-H226 lung) [µM] | GI50 (NCI-H23 lung) [µM] | GI50 (SNB-75 CNS) [µM] |
| --- | --- | --- | --- | --- | --- | --- | --- | --- | --- | --- | --- | --- | --- | --- | --- | --- | --- | --- | --- | --- |
| COC(C)C(O)(C(=O)OCC1=CCN2CCC(O)C12)C(C)(C)O (stereo unspecified) | > 100 | > 100 | > 100 | > 100 | > 100 µM | > 100 | > 100 | > 100 | > 100 | – | – | – | – | – | – | – | – | – | – | – |
| COc1ccc(CC2C(=O)OC(C)C(NC(=O)c3c4nc5c(C(=O)NC6C(=O)NC(C(C)C)C(=O)N7CCCC7C(=O)N(C)CC(=O)N(C)C(Cc7ccc(OC)cc7)C(=O)OC6C)ccc(C)c5oc-4c(C)c(=O)c3N)C(=O)NC(C(C)C)C(=O)N3CCCC3C(=O)N(C)CC(=O)N2C)cc1 (stereo unspecified) (I: TVP[Sar][NMeY](Me) / II: TVP[Sar][NMeY](Me); ester I:1-I:C, II:1-II:C; linker I:N-II:N via Actinocin(1to9); configuration not given here) | 0.018 | – | – | – | 1.55 µM and > 0.804 µM | 0.158 | > 0.213 | – | > 0.651 | 0.00264 | < 0.01 µM and 0.0306 µM | < 0.01 µM and 0.0582 µM | < 0.01 µM and 0.0841 µM | – | – | – | – | – | – | – |
| CCn1c2ccccc2c2cc(C(=O)c3ccc(C)c4ccccc34)ccc21 | – | 1.41 | – | 3.52 | > 100 µM | – | > 100 | > 100 | > 100 | – | 0.35 µM | 0.553 µM | 0.62 µM | 0.319 | 0.296 | 0.438 | 2.71 | 1.91 | – | – |
| C[C@]12C[C@H](O)[C@H]3[C@@H](CCC4=CC(=O)CC[C@@]43C)[C@@H]1CC[C@@H]2c1csc(-c2ccccc2)n1 | > 100 | – | > 100 | > 100 | > 100 µM | > 82.7 | > 100 | > 100 | > 100 | – | – | – | – | – | – | – | > 100 | – | – | – |
| CCOC(=O)/C=C/c1cccc(F)c1 | > 100 | – | > 100 | > 100 | > 100 µM | > 100 | > 100 | – | > 100 | – | – | – | – | – | – | – | > 100 | – | – | – |
| CCOC(=O)C1=C(C)NC(c2ccco2)=C(C#N)C1c1cccc([N+](=O)[O-])c1 (stereo unspecified) | 0.0371 | 0.311 | 0.0947 | 2.27 | – | – | 3.43 | 70.9 | 99.5 | – | – | 0.738 µM | 0.0331 µM | – | – | 0.0253 | – | 0.0137 | 0.0251 | – |
| CC(=O)[CH-]C(=O)c1ccccc1.CC(=O)[CH-]C(=O)c1ccccc1.[O-]c1ccc2c(c1)OCO2.[O-]c1ccc2c(c1)OCO2.[Ti+4] | 42.1 | 78.6 | 64.4 | > 100 | 69.7 µM | 66.1 | 85 | > 100 | > 100 | 16.5 | – | 30.1 µM | 31.9 µM | 29.1 | 47.5 | 20.8 | – | 24.9 | 22.4 | 19.2 |
| Nc1ccc(/C=C/c2ccc3cccnc3c2)cc1 | – | > 100 | > 100 | > 100 | > 100 µM | > 100 | > 100 | > 100 | > 100 | – | – | – | – | – | – | – | > 100 | – | – | – |
| COC(=O)C1CCc2nnc(-c3ccccc3)n21 (stereo unspecified) | > 100 | > 100 | > 100 | > 100 | > 100 µM | > 100 | > 100 | – | > 100 | – | – | – | – | – | – | – | > 100 | – | – | – |
| CO[C@@]1(c2ccccc2)O[C@H]2OCCC2[C@H]1c1ccc(Cl)cc1 (stereo partly specified) | 67.9 | 33.1 | 81.6 | > 100 | > 100 µM | > 100 | > 100 | – | > 100 | – | – | – | – | – | – | – | 57.4 | – | – | – |
| COCCNc1cncc(C(N)=O)c1 | > 100 | > 100 | > 100 | > 100 | > 100 µM | > 100 | > 100 | > 100 | > 100 | – | – | – | – | – | – | – | – | – | – | – |
| CC(=O)[O-].N.N.N.N.[Co+3].[O-][Cl+3]([O-])([O-])[O-].[OH3+] | > 100 | > 100 | > 100 | > 100 | > 100 µM | > 100 | – | > 100 | > 100 | 49.5 | – | > 100 µM | > 100 µM | > 100 | > 100 | > 100 | – | – | > 100 | 55.1 |
| COC(=O)N/N=C(\C)CC(=O)Nc1ccc(Cl)cc1 | > 100 | > 100 | > 100 | > 100 | – | > 100 | > 100 | > 100 | > 100 | – | – | – | – | – | – | – | > 100 | – | – | – |
| CC[C@H](C)[C@H](NC(=O)c1cccn1C)C(=O)N(C)[C@H](C[C@@H](OC(C)=O)c1nc(C(=O)N[C@@H](Cc2ccccc2)C[C@H](C)C(=O)OC)cs1)C(C)C | 2.08 | 0.736 | > 33.3 | > 26 | > 33.3 µM | > 33.3 | > 33.3 | > 33.3 | > 33.3 | 0.0661 | – | 0.124 µM | 0.65 µM | 0.103 | 0.0569 | 0.196 | – | 1.17 | 0.216 | 0.0929 |
| COc1ccc([C@@H]2OC(=O)C3C2C(=O)O[C@H]3c2ccc(OC)c(OC)c2)cc1OC (stereo partly specified) | > 100 | > 100 | > 100 | > 100 | > 100 µM | > 100 | > 100 | > 100 | – | – | – | – | – | – | – | – | > 100 | – | – | – |
| CC1=CCCC2C(C=O)(C1)CC(C)C2(CO)CC/C(=C/CO)CO (stereo unspecified) | > 100 | > 100 | > 100 | > 100 | – | > 100 | > 100 | > 100 | – | – | – | – | – | – | – | – | > 100 | – | – | – |
| COc1cc2c3c(n(CCCNCCCN)c(=O)c2cc1OC)-c1cc2c(cc1C3=O)OCO2 | – | 19 | > 100 | 15.5 | 11.6 µM | 36.7 | 8.45 | 92.9 | 12.6 | – | 3.91 µM | 11.2 µM | 2.94 µM | 5.35 | 3.41 | 1.52 | 16.8 | 2.21 | > 100 | 4.48 |
| O=c1c2cc3ccccc3n2c(=O)c2cc3ccccc3n12 | > 100 | > 100 | > 100 | > 100 | > 100 µM | > 100 | > 100 | – | > 100 | – | – | – | – | – | – | – | > 100 | – | – | – |
| C=C1C(=O)O[C@H]2C[C@@H]1C(=O)CC(C)CCCC(C)=CCC[C@@]2(C)O (stereo partly specified) | > 25 | > 25 | > 25 | > 25 | > 25 µM | – | > 25 | > 25 | > 25 | – | – | – | – | – | – | – | > 25 | – | – | – |
